Assay [1] concerns the target human mPGES-1 (Homo sapiens (Human), UniProt O14684). The assay can be described thus: mPGES-1 inhibiting activity (microsome fractions, PGE2 by HTRF). It counts as biochemical. To be noted: microsomes from CHO-K1 cells transfected with human mPGES-1; PGH2 1 μM, 4° C., 60 seconds; read-out: mPGES-1 Inhibition IC50. As for the experimental part: mPGES-1 microsome fractions were prepared from CHO-K1 cells transiently transfected with plasmid encoding the human mPGES-1cDNA. Microsomes were diluted with potassium phosphate buffer containing reduced glutathione (pH7.4), and DMSO containing test compound or DMSO alone was added (such that DMSO final concentration would be 1% in each) and incubated at 4° C. for 20 minutes. Then, the enzymatic reactions were initiated by the addition of PGH2 substrate (final concentration 1 μM) and incubated at 4° C. for 60 seconds. The reaction was terminated by the addition of a citrate solution (final citrate concentration 50 mM) containing ferric chloride (final concentration 1 mg/mL). PGE2 production in the enzyme reaction aliquot was measured using HTRF kit (Cisbio International, catalogue #62P2APEC). The solution free of test compound was used as positive control, and the solution free of test compound and microsome sample was used as negative control. 100% activity was defined as PGE2 production in the positive control minus PGE2 production in negative control. IC50 value was calculated by standard method.

For assay [2], the system named is A549 cells. The assay can be described thus: Inhibition of PGE2 production in A549 cell (IL-1β stimulated). Type of assay: cell-based, human. To be noted: IL-1β 5 ng/well, PGE2 in culture medium. As to the method:
Human A549 cells were seeded onto a 96-well plate at 2×10^4 cells/100 μL per well and allowed to incubate overnight. After removing the culture medium and washing with phosphate buffered saline, the culture medium was replaced by RPMI culture medium with 3% FBS containing a DMSO solution containing test compound or DMSO alone (such that DMSO final concentration would be […] in each). After incubation for 60 minutes, IL-1β (5 ng/well) was added and incubated at 37° C. for 24 hours. Then, PGE2 in the culture medium was measured using HTRF kit (Cisbio International, catalogue #62P2APEC), and PGF2α in the culture medium was measured using EIA kit (Cayman Chemical Company, catalogue #516011). The solution free of test compound was used as positive control, and the solution free of test compound and IL-1β was used as negative control. 100% activity was defined as PGE2 and PGF2α production in the positive control minus PGE2 and PGF2α production in the negative control. IC50 value was calculated by standard method.

Counter-ions that a name gives are not always drawn.

human mPGES-1, sequence (O14684 whole entry): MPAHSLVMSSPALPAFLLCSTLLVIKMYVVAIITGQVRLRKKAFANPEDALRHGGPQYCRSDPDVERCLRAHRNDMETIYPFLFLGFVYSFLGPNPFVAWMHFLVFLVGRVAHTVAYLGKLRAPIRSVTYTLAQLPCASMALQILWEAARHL

With `Cc1c(Cl)cccc1NC(=O)c1cc(NC(=O)c2ccccc2C(F)(F)F)cc2[nH]c(C3CCCO3)nc12` (stereo in doubt) [Example 66, N-(3-Chloro-2-methylphenyl)-2-[(2S)-tetrahydrofuran-2-yl]-6-({[2-(trifluoromethyl)phenyl]carbonyl}amino)-1H-benzimidazole-4-carboxamide hydrochloride], the IC50 in assay [1] was determined as 9.9 nM; in assay [2] (24 hours, hydrochloride) it was 57.3 nM.
Regarding `CN(C)c1nc2c(C(=O)Nc3ccc(C(C)(C)C)cc3)cc(NC(=O)c3ccccc3C(F)(F)F)cc2[nH]1` [Example 203, N-(4-tert-Butylphenyl)-2-(dimethylamino)-6-({[2-(trifluoromethyl)phenyl]carbonyl}amino)-1H-benzimidazole-4-carboxamide hydrochloride], the IC50 was 1.4 nM in assay [1] and 5.2 nM in assay [2] (Homo sapiens, A549, 24 h).
For the compound `Cc1c(Cl)cccc1NC(=O)c1cc(NC(=O)c2ccccc2C(F)(F)F)cc2[nH]c([C@@H]3CCCN3)nc12` [Example 71, N-(3-Chloro-2-methylphenyl)-2-[(2S)-pyrrolidin-2-yl]-6-({[2-(trifluoromethyl)phenyl]carbonyl}amino)-1H-benzimidazole-4-carboxamide dihydrochloride], the IC50 in assay [1] was 33.1 nM; in assay [2] (Homo sapiens, A549, 24 h) it was 227 nM.
`Cc1c(Cl)cccc1NC(=O)c1cc(NC(=O)c2ccccc2C(F)(F)F)cc2[nH]c(C3CCCC3)nc12` [Example 124, N-(3-Chloro-2-methylphenyl)-2-cyclopentyl-6-({[2-(trifluoromethyl)phenyl]carbonyl}amino)-1H-benzimidazole-4-carboxamide hydrochloride]: the IC50 in assay [1] is 2.2 nM; in assay [2] (Homo sapiens, A549, 24 h) it was 3.2 nM.
For `Cc1c(Cl)cccc1NC(=O)c1cc(NC(=O)c2ccccc2C(F)(F)F)cc2[nH]c(C(C)(C)C)nc12` [Example 76, 2-tert-Butyl-N-(3-chloro-2-methylphenyl)-6-({[2-(trifluoromethyl)phenyl]carbonyl}amino)-1H-benzimidazole-4-carboxamide hydrochloride], the IC50 in assay [1] was determined as 0.2 nM; in assay [2] (Homo sapiens, A549, 24 h), 5.5 nM.
Regarding `Cc1c(Cl)cccc1NC(=O)c1cc(NC(=O)c2ccccc2C(F)(F)F)cc2[nH]c(C3(C)CC3)nc12` [Example 85, N-(3-chloro-2-methylphenyl)-2-(1-methylcyclopropyl)-6-({[2-(trifluoromethyl)phenyl]carbonyl}amino)-1H-benzimidazole-4-carboxamide], the IC50 in assay [1] worked out at 0.5 nM; in assay [2] (Homo sapiens, A549, 24 h) it was 3.7 nM.
On to `COCc1nc2c(C(=O)Nc3cccc(Br)c3C)cc(NC(=O)c3ccccc3C(F)(F)F)cc2[nH]1` [Example 38, N-(3-Bromo-2-methylphenyl)-2-(methoxymethyl)-6-({[2-(trifluoromethyl)phenyl]carbonyl}amino)-1H-benzimidazole-4-carboxamide], for which the IC50 amounted to 6.6 nM in assay [1] and 17.4 nM in assay [2] (Homo sapiens, A549, 24 h).
Regarding `COCc1nc2c(C(=O)Nc3ccc(C)cc3Cl)cc(NC(=O)c3ccccc3C(F)(F)F)cc2[nH]1` [Example 30, N-(2-Chloro-4-methylphenyl)-2-(methoxymethyl)-6-({[2-(trifluoromethyl)phenyl]carbonyl}amino)-1H-benzimidazole-4-carboxamide hydrochloride], the IC50 in assay [1] came to 1.8 nM; in assay [2] (Homo sapiens, A549, 24 h) it was 210 nM.
Taken in the same sequence, the figures for `COCc1nc2c(C(=O)Nc3nc4ccccc4o3)cc(NC(=O)c3ccccc3C(F)(F)F)cc2[nH]1` [Example 232, N-(1,3-Benzoxazol-2-yl)-2-(methoxymethyl)-6-({[2-(trifluoromethyl)phenyl]carbonyl}amino)-1H-benzimidazole-4-carboxamide hydrochloride] were 7.7 nM and 125 nM.
Turning to `COCc1nc2c(C(=O)Nc3cccc(Cl)c3C)cc(NC(=O)c3cc(F)ccc3C(F)(F)F)cc2[nH]1` [Example 112, N-(3-Chloro-2-methylphenyl)-6-({[5-fluoro-2-(trifluoromethyl)phenyl]carbonyl}amino)-2-(methoxymethyl)-1H-benzimidazole-4-carboxamide hydrochloride], the IC50 in assay [1] came to 2.6 nM; in assay [2] (Homo sapiens, A549, 24 h), 187 nM.
On to `CSCCNc1nc2c(C(=O)Nc3cccc(Cl)c3C)cc(NC(=O)c3ccccc3C(F)(F)F)cc2[nH]1` [Example 178, N-(3-Chloro-2-methylphenyl)-2-{[2-(methylsulfanyl)ethyl]amino}-6-({[2-(trifluoromethyl)phenyl]carbonyl}amino)-1H-benzimidazole-4-carboxamide hydrochloride], for which the IC50 came out at 1.2 nM in assay [1] and 12.8 nM in assay [2] (Homo sapiens, A549, 24 h).
As for `CCOCCOCc1ccc(Cl)c(C(=O)Nc2cc(C(=O)Nc3cccc(Cl)c3C)c3nc(COC)[nH]c3c2)c1` [Example 121, 6-[({2-Chloro-5-[(2-ethoxyethoxy)methyl]phenyl}carbonyl)amino]-N-(3-chloro-2-methylphenyl)-2-(methoxymethyl)-1H-benzimidazole-4-carboxamide hydrochloride], the IC50 in assay [1] was determined as 6.3 nM; in assay [2] (Homo sapiens, A549, 24 h) it was 432 nM.
Turning to `CCn1cnc2c(C(=O)NCc3ccccc3C(F)(F)F)cc(NC(=O)c3ccccc3C(F)(F)F)cc21` [Example 51, 1-Ethyl-N-[2-(trifluoromethyl)benzyl]-6-({[2-(trifluoromethyl)phenyl]carbonyl}amino)-1H-benzimidazole-4-carboxamide], the IC50 in assay [1] turned out to be 120 nM; in assay [2] (Homo sapiens, A549, 24 h) it was 330 nM.
For `Cc1c(Cl)cccc1NC(=O)c1cc(NC(=O)c2ccccc2C(F)(F)F)cc2[nH]c([C@@H]3CCC(=O)N3)nc12` [Example 130, N-(3-Chloro-2-methylphenyl)-2-[(2S)-5-oxopyrrolidin-2-yl]-6-({[2-(trifluoromethyl)phenyl]carbonyl}amino)-1H-benzimidazole-4-carboxamide hydrochloride], the IC50 in assay [1] was 3.9 nM; in assay [2] (Homo sapiens, A549, 24 h) it was more than 10000 nM.
For the compound `Cc1c(Cl)cccc1NC(=O)c1cc(NC(=O)c2c(F)cccc2Cl)cc2[nH]c(NCC(C)(C)CO)nc12` [Example 200, 6-{[(2-Chloro-6-fluorophenyl)carbonyl]amino}-N-(3-chloro-2-methylphenyl)-2-[(3-hydroxy-2,2-dimethylpropyl)amino]-1H-benzimidazole-4-carboxamide hydrochloride], the half-inhibitory concentration (IC50) in assay [1] was determined as 4.6 nM; in assay [2] (Homo sapiens, A549, 24 h), 108 nM.
For `Cc1nc2c(C(=O)Nc3cccc(Cl)c3C)cc(NC(=O)c3ccccc3C(F)(F)F)cc2o1` [Example 52, N-(3-Chloro-2-methylphenyl)-2-methyl-6-({[2-(trifluoromethyl)phenyl]carbonyl}amino)-1,3-benzoxazole-4-carboxamide], the IC50 is 40.2 nM in assay [1] and 281 nM in assay [2] (Homo sapiens, A549, 24 h).
With `Cc1ccc(NC(=O)c2cc(NC(=O)c3c(Cl)cccc3Cl)cc3[nH]c(N(C)C)nc23)cc1Cl` [Example 206, N-(3-Chloro-4-methylphenyl)-6-{[(2,6-dichlorophenyl)carbonyl]amino}-2-(dimethylamino)-1H-benzimidazole-4-carboxamide hydrochloride], the IC50 in assay [1] is 3.2 nM; in assay [2] (Homo sapiens, A549, 24 h), 74.5 nM.
Turning to `COCc1nc2c(C(=O)Nc3ccccc3C)cc(NC(=O)c3ccccc3C(F)(F)F)cc2[nH]1` [Example 22, 2-(Methoxymethyl)-N-(2-methylphenyl)-6-({[2-(trifluoromethyl)phenyl]carbonyl}amino)-1H-benzimidazole-4-carboxamide hydrochloride], the IC50 in assay [1] came to 4.8 nM; in assay [2] (Homo sapiens, A549, 24 h), 104 nM.
On to `Cc1c(Cl)cccc1NC(=O)c1cc(NC(=O)c2ccccc2C(F)(F)F)cc2[nH]c([C@H]3CCCN3C(=O)OC(C)(C)C)nc12` [Example 70, tert-Butyl (2R)-2-{4-[(3-chloro-2-methylphenyl)carbamoyl]-6-({[2-(trifluoromethyl)phenyl]carbonyl}amino)-1H-benzimidazol-2-yl}pyrrolidine-1-carboxylate], for which the IC50 was 4.6 nM in assay [1] and 147 nM in assay [2] (Homo sapiens, A549, 24 h).
As for `COCc1nc2c(C(=O)Nc3ccc(C)c(Cl)c3)cc(NC(=O)c3ccccc3C(F)(F)F)cc2[nH]1` [Example 32, N-(3-Chloro-4-methylphenyl)-2-(methoxymethyl)-6-({[2-(trifluoromethyl)phenyl]carbonyl}amino)-1H-benzimidazole-4-carboxamide hydrochloride], the IC50 in assay [1] came to 5.2 nM; in assay [2] (Homo sapiens, A549, 24 h) it was 71.7 nM.
`Cc1ccc(NC(=O)c2cc(NC(=O)c3cc(Cl)ccc3Cl)cc3[nH]c(C4(C)CC4)nc23)cc1Cl` [Example 211, N-(3-Chloro-4-methylphenyl)-6-{[(2,5-dichlorophenyl)carbonyl]amino}-2-(1-methylcyclopropyl)-1H-benzimidazole-4-carboxamide hydrochloride]: the IC50 stood at 2.5 nM in assay [1] and 8.5 nM in assay [2] (Homo sapiens, A549, 24 h).

The values are drawn from patent publication US9216968B2, “Heterocyclic derivative and pharmaceutical drug” (NIPPON SHINYAKU CO., LTD., priority 2011, dated 2015).
